US11427588B2, “Compositions and methods for treating neurodegenerative diseases and cardiomyopathy” (THE REGENTS OF THE UNIVERSITY OF CALIFORNIA, priority 2013, dated 2022)

System: SH-SY5Y
Type: in vitro ADME
Conditions: not told
Source text: We included negative control analogs of Kinetin which prevent metabolism.

## c1coc(CNc2ncnc3[nH]cnc23)c1 [kinetin]
  membrane impermeable metabolite after incubation: presence of a membrane impermeable metabolite
